According to US9890166B2, “Imidazopyrrolidine derivatives and their use in the treatment of disease” (NOVARTIS AG, priority 2013, dated 2018):

Assays:
BRD3 (His-Brd3(20-477)) = BRD3 (His-Brd3(20-477)) (Homo sapiens (Human), UniProt Q15059); assay: TR-FRET in-vitro binding assay for BRD3; conditions: single determination or n ≧ 2 independent determinations, read-out: Biochemical IC50 BRD3
Experimental: (§1) TR-FRET In-Vitro Binding Assays for BRD2, BRD3, and BRD4:
(§2) All assays were performed in 384 well microtiter plates. Each assay plate contained 8-point serial dilutions for 40 test compounds, plus 16 high- and 16 low controls. Liquid handling and incubation steps were done on an Innovadyne Nanodrop Express equipped with a robotic arm (Thermo CatX, Perkin Elmer/Caliper Twister II) and an incubator (Liconic STX40, Thermo Cytomat 2C450). The assay plates were prepared by addition of 50 nl per well of compound solution in 90% DMSO HummingBird nanodispenser (Zinsser Analytic). […] Reactions were incubated at 30° C. for 35 minutes. […] After 35 minutes incubation at 30° C., plates were measured in a Perkin Elmer EnVision multilabel reader.
(§3) Preparation of Compound Dilutions
(§4) Test compounds were dissolved in DMSO (10 mM) and transferred into 1.4 mL flat bottom or V-shaped Matrix tubes carrying a unique 2D matrix. The stock solutions were stored at […] if not used immediately. For the test procedure the vials were defrosted and identified by a scanner whereby a working sheet was generated that guided the subsequent working steps.
(§5) Compound dilutions were made in 96 well plates. This format enabled the assay of maximally 40 individual test compounds at 8 concentrations (single points) including 4 reference compounds, if desired (known BET inhibitors from the prior art, for this and other assays of the type disclosed herein). The dilution protocol included the production of “pre-dilution plates”, “master plates” and “assay plates”.
(§6) Pre-Dilution Plates: 96 polypropylene well plates were used as pre-dilution plates. A total of 4 pre-dilution plates were prepared including 10 test compounds each on the plate positions A1-A10, one standard compound at A11 and one DMSO control at A12. All dilution steps were done on a HamiltonSTAR robot.
(§7) These plates were used directly for the assay which was performed in a total volume of 13.55 μL.

BRD2 (His-Brd2(60-472)) = BRD2 (His-Brd2(60-472)) (Homo sapiens (Human), UniProt P25440); assay: TR-FRET in-vitro binding assay for BRD2; conditions: single determination or n ≧ 2 independent determinations, read-out: Biochemical IC50 BRD2
Sequence of BRD2 (His-Brd2(60-472)) (P25440 60-472): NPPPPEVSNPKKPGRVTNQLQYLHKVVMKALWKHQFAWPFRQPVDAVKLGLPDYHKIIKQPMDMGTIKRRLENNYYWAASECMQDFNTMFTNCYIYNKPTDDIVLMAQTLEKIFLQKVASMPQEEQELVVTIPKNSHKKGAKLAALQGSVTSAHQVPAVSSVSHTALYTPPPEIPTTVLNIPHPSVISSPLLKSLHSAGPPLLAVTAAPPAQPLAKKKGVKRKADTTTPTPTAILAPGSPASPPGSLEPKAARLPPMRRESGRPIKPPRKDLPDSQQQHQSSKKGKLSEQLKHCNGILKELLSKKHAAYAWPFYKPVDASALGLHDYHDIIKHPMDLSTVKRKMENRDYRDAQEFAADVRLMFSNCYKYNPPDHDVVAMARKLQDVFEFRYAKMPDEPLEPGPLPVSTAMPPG
Experimental: as §1, §2, §3, §4, §5, §6, §7

BRD4 (His-Brd4(44-477)) = BRD4 (His-Brd4(44-477)) (Homo sapiens (Human), UniProt O60885); assay: TR-FRET in-vitro binding assay for BRD4; conditions: single determination or n ≧ 2 independent determinations, read-out: Biochemical IC50 BRD4
Experimental: as §1, §2, §3, §4, §5, §6, §7

MV-4-11 cells = assay: Cell growth inhibition assay (CellTiter-Glo), MV-4-11; conditions: for GI50: Homo sapiens, MV4-11, read-out: MV-4-11 GI50; for MV-4-11 TGI: MV-4-11 cells, total growth inhibition, CellTiter-Glo;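 on all read-outs here: cellular ATP luminescence after 4 days, 3-fold dilution series from 10 µM top dose, vehicle (0.1% DMSO) set to 100%, cell-free medium set to −100%, day 0 corrected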
THP-1 cells = assay: Cell growth inhibition assay (CellTiter-Glo), THP-1; conditions: for GI50: Homo sapiens, THP-1, read-out: THP-1 GI50; for THP-1 TGI: THP-1 cells, total growth inhibition, CellTiter-Glo;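 on all read-outs here: viability read as cellular ATP luminescence after 4 days, 3-fold dilution series from 10 µM, DMSO vehicle-treated cells taken as 100%, cell-free medium wells as −100%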
K-562 cells = assay: Cell growth inhibition assay (CellTiter-Glo), K-562; conditions: for GI50: Homo sapiens, K562, read-out: K-562 GI50; for K-562 TGI: K-562 cells, total growth inhibition, CellTiter-Glo;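 on all read-outs here: cellular ATP measured by luminescence after 4 days of exposure, 3-fold dilution series from 10 µM, DMSO vehicle-treated cells define 100%, cell-free medium wells −100%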
[1] = target: CREBBP bromodomain (His-CREBBP(1081-1197)) (Homo sapiens (Human), UniProt Q92793); assay: AlphaScreen in-vitro binding assay for CREBBP; conditions: single determination or n ≧ 2 independent determinations, read-out: Biochemical IC50 CREBBP
Sequence of CREBBP bromodomain (His-CREBBP(1081-1197)) (Q92793 1081-1197): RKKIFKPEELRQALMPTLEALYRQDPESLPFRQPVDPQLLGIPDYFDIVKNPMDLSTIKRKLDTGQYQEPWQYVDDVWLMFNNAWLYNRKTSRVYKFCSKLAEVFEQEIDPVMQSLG
Experimental: AlphaScreen In-Vitro Binding Assay for CREBBP
In order to assess bromodomain selectivity, we set up a binding assay using the bromodomain encoded by the CREBBP gene. […] Reactions were incubated at 30° C. for 35 minutes. Subsequently 4.5 μl per well detection mix (50 mM HEPES, pH 7.5, 0.005% Tween20, 0.02% BSA, 150 mM NaCl, 45 μg/ml Ni-chelate acceptor beads, 45 μg/mIstreptavidin-donor beads) (Perkin Elmer)) were added. After 60 minutes incubation at room temperature, plates were measured in a Perkin Elmer EnVision multilabel reader. IC50 values were determined from percent inhibition values at different compound concentrations by non-linear regression analysis.
as §3, §4, §5, §6, §7

Sequence of BRD3 (His-Brd3(20-477)) (Q15059 20-477): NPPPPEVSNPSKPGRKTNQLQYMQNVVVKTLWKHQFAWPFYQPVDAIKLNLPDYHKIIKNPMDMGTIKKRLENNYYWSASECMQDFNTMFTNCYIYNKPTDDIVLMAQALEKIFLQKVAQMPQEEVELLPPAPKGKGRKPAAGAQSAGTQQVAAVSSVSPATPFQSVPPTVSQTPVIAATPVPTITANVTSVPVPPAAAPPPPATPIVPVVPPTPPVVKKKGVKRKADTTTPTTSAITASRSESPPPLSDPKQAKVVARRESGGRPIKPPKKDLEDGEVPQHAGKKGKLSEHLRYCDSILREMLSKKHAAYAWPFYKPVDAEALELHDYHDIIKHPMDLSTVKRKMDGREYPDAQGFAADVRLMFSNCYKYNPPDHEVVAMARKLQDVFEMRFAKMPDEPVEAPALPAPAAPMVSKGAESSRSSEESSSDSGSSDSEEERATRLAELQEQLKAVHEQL

| IC50 (BRD3 (His-Brd3(20-477))) [nM] | IC50 (BRD2 (His-Brd2(60-472))) [nM] | IC50 (BRD4 (His-Brd4(44-477))) [nM] | GI50 (MV-4-11 cells) [nM] | GI50 (THP-1 cells) [nM] | GI50 (K-562 cells) [nM] | IC50 [1] [nM] | Compound | MV-4-11 TGI (MV-4-11 cells) [nM] | THP-1 TGI (THP-1 cells) [nM] | K-562 TGI (K-562 cells) [nM] |
| --- | --- | --- | --- | --- | --- | --- | --- | --- | --- | --- |
| 610 | 710 | 630 | – | – | – | 24600 | CC(C)n1c(-c2ccccn2)nc2c1C(c1ccc(Cl)cc1)N(c1ccc(=O)n(C)c1)C2=O (centres unmarked) [Example 20, 6-(4-chlorophenyl)-1-isopropyl-5-(1-methyl-6-oxo-1,6-dihydropyridin-3-yl)-2-(Pyridin-2-yl)-5,6-dihydropyrrolo[3,4-d]imidazol-4(1H)-one] | – | – | – |
| 840 | 1100 | 772 | – | – | – | 34800 | CC(C)n1c(-c2ccnn2C)nc2c1C(c1ccc(Cl)cc1)N(c1ccc(=O)n(C)c1)C2=O (centres unmarked) [Example 21, 6-(4-chlorophenyl)-1-isopropyl-2-(1-methyl-1H-pyrazol-5-yl)-5-(1-methyl-6-oxo-1,6-dihydropyridin-3-yl)-5,6-dihydropyrrolo[3,4-d]imidazol-4(1H)-one] | – | – | – |
| 603 | 607 | 495 | – | – | – | > 37000 | CC(C)n1c(-c2ccn(C)n2)nc2c1C(c1ccc(Cl)cc1)N(c1ccc(=O)n(C)c1)C2=O (centres unmarked) [Example 22, 6-(4-chlorophenyl)-1-isopropyl-2-(1-methyl-1H-pyrazol-3-yl)-5-(1-methyl-6-oxo-1,6-dihydropyridin-3-yl)-5,6-dihydropyrrolo[3,4-d]imidazol-4(1H)-one] | – | – | – |
| 41.5 | 30 | 42.5 | – | – | – | 455 | Cc1cc(N2C(=O)c3nc(-c4nccs4)n(C(C)C)c3[C@H]2c2ccc(Cl)cc2)cn(C)c1=O [Example 24, (R)-6-(4-chlorophenyl)-5-(1,5-dimethyl-6-oxo-1,6-dihydropyridin-3-yl)-1-isopropyl-2-(thiazol-2-yl)-5,6-dihydropyrrolo[3,4-d]imidazol-4(1H)-one] | – | – | – |
| 100 | 81 | 110 | – | – | – | 800 | Cc1ncc(-c2nc3c(n2C(C)C)C(c2ccc(Cl)cc2)N(c2cc(C)c(=O)n(C)c2)C3=O)s1 (centres unmarked) [Example 29, 6-(4-chlorophenyl)-5-(1,5-dimethyl-6-oxo-1,6-dihydropyridin-3-yl)-1-isopropyl-2-(2-methylthiazol-5-yl)-5,6-dihydropyrrolo[3,4-d]imidazol-4(1H)-one] | – | – | – |
| 100 | 92 | 120 | – | – | – | 1000 | Cc1cc(N2C(=O)c3nc(-c4ccc[nH]4)n(C(C)C)c3C2c2ccc(Cl)cc2)cn(C)c1=O (centres unmarked) [Example 30, 6-(4-chlorophenyl)-5-(1,5-dimethyl-6-oxo-1,6-dihydropyridin-3-yl)-1-isopropyl-2-(1H-pyrrol-2-yl)-5,6-dihydropyrrolo[3,4-d]imidazol-4(1H)-one] | – | – | – |
| 37 | 45 | 47 | 36.4 | 79.4 | 349 | – | Cc1cc(N2C(=O)c3nc(C4CCCC4)n(C(C)C)c3C2c2ccc(Cl)cc2)cn(C)c1=O (centres unmarked) [Example 31, 6-(4-chlorophenyl)-2-cyclopentyl-5-(1,5-dimethyl-6-oxo-1,6-dihydropyridin-3-yl)-1-isopropyl-5,6-dihydropyrrolo[3,4-d]imidazol-4(1H)-one] | 59.9 | 125 | >10000 |
| 39 | 33 | 39 | – | – | – | 1000 | COc1ncccc1-c1nc2c(n1C(C)C)C(=O)N(c1cc(C)c(=O)n(C)c1)C2c1ccc(Cl)cc1 (centres unmarked) [Example 44, 6-(4-chlorophenyl)-5-(1,5-dimethyl-6-oxo-1,6-dihydropyridin-3-yl)-3-isopropyl-2-(2-methoxypyridin-3-yl)-5,6-dihydropyrrolo[3,4-d]imidazol-4(3H)-one] | – | – | – |

The next lines start with the compound.

| Compound | IC50 (BRD3 (His-Brd3(20-477))) [nM] | IC50 (BRD2 (His-Brd2(60-472))) [nM] | IC50 (BRD4 (His-Brd4(44-477))) [nM] | GI50 (MV-4-11 cells) [nM] | GI50 (THP-1 cells) [nM] | GI50 (K-562 cells) [nM] | IC50 [1] [nM] | MV-4-11 TGI (MV-4-11 cells) [nM] | THP-1 TGI (THP-1 cells) [nM] | K-562 TGI (K-562 cells) [nM] |
| --- | --- | --- | --- | --- | --- | --- | --- | --- | --- | --- |
| COc1cc(N2C(=O)c3nc(C4CCOCC4)n(C(C)C)c3C2c2ccc(Cl)cc2)cc2c1nnn2C (racemic) [Example 64] | 58 | 120 | 43 | 35.1 | 84.3 | 156 | 10200 | 54.6 | 155 | >10000 |
| COc1ncccc1-c1nc2c(n1C(C)C)C(c1ccc(Cl)cc1)N(c1cc(OC)c3nnn(C)c3c1)C2=O (racemic) [Example 74, 6-(4-chlorophenyl)-1-isopropyl-5-(4-methoxy-1-methyl-1H-benzo[d][1,2,3]triazol-6-yl)-2-(2-methoxypyridin-3-yl)-5,6-dihydropyrrolo[3,4-d]imidazol-4(1H)-one] | 61 | 140 | 32 | 38.2 | 57.9 | 158 | 10300 | 59.25 | 121 | >10000 |
| Cc1cc(N2C(=O)c3nc(C4CC4)n(C(C)(C)C)c3C2c2ccc(Cl)cc2)cn(C)c1=O (centres unmarked) [Example 33, 1-(tert-butyl)-6-(4-chlorophenyl)-2-cyclopropyl-5-(1,5-dimethyl-6-oxo-1,6-dihydropyridin-3-yl)-5,6-dihydropyrrolo[3,4-d]imidazol-4(1H)-one] | 66 | 65 | 100 | – | – | – | 510 | – | – | – |
| COc1ncccc1-c1nc2c(n1C(C)C)[C@@H](c1ccc(Cl)cc1)N(c1cc(C)c3nnn(C)c3c1)C2=O [Example 112, (R)-6-(4-chlorophenyl)-5-(1,4-dimethyl-1H-benzo[d][1,2,3]triazol-6-yl)-1-isopropyl-2-(2-methoxypyridin-3-yl)-5,6-dihydropyrrolo[3,4-d]imidazol-4(1H)-one] | < 11 | 13 | < 11 | 1.72 | 4.79 | 17.2 | – | 4.61 | 9.84 | >10000 |
| CCn1c(C)nc2c1[C@@H](c1ccc(Cl)cc1)N(c1cc(C)c3nnn(C)c3c1)C2=O [Example 120, (R)-6-(4-chlorophenyl)-5-(3,7-dimethyl-3H-benzo[d][1,2,3]triazol-5-yl)-1-ethyl-2-methyl-5,6-dihydropyrrolo[3,4-d]imidazol-4(1H)-one] | 29.5 | 35.5 | 20.5 | – | – | – | 5130 | – | – | – |
| CCn1c(C)nc2c1C(=O)N(c1cc(C)c3nnn(C)c3c1)[C@@H]2c1ccc(Cl)cc1 [Example 122, (R)-6-(4-chlorophenyl)-5-(3,7-dimethyl-3H-benzo[d][1,2,3]triazol-5-yl)-3-ethyl-2-methyl-5,6-dihydropyrrolo[3,4-d]imidazol-4(3H)-one] | 26 | 21.5 | 19 | – | – | – | 2620 | – | – | – |
| COc1ncccc1-c1nc2c([nH]1)C(c1ccc(Cl)cc1)N(c1cc(C)c3nnc(C)n3c1)C2=O (centres unmarked) [Example 123, 6-(4-chlorophenyl)-5-(3,8-dimethyl-[1,2,4]triazolo[4,3-a]pyridin-6-yl)-2-(2-methoxypyridin-3-yl)-5,6-dihydropyrrolo[3,4-d]imidazol-4(1H)-one] | 87 | 97 | 65 | – | – | – | 5500 | – | – | – |
| COc1ncccc1-c1nc2c([nH]1)[C@@H](c1ccc(Cl)cc1)N(c1cc(C)c3nnc(C)n3c1)C2=O [Example 142, (R)-6-(4-chlorophenyl)-5-(3,8-dimethyl-[1,2,4]triazolo[4,3-a]pyridin-6-yl)-2-(2-methoxypyridin-3-yl)-5,6-dihydropyrrolo[3,4-d]imidazol-4(1H)-one] | 36 | 96 | 40 | – | – | – | 1750 | – | – | – |
